{"source": "ChEMBL document CHEMBL1124477", "about": "“Regional differences in the binding of selective muscarinic receptor antagonists in rat brain: comparison with minimum-energy conformations” (J Med Chem, 1989)", "key": {"[1]": {"molecular_target": "Muscarinic acetylcholine receptor"}, "[2]": {"molecular_target": "Muscarinic acetylcholine receptor", "remark": "listed apart in the source"}, "[3]": {"molecular_target": "Muscarinic acetylcholine receptor", "remark": "listed apart in the source"}, "[4]": {"molecular_target": "Muscarinic acetylcholine receptor", "remark": "listed apart in the source"}, "[5]": {"molecular_target": "Muscarinic acetylcholine receptor", "remark": "listed apart in the source"}, "[6]": {"molecular_target": "Muscarinic acetylcholine receptor", "assay_type": "tissue-based, Rattus norvegicus, Hippocampus"}, "[7]": {"molecular_target": "Muscarinic acetylcholine receptor", "set-up": "species or system Rattus norvegicus"}, "[8]": {"molecular_target": "Muscarinic acetylcholine receptor", "remark": "listed apart in the source"}, "[9]": {"molecular_target": "Muscarinic acetylcholine receptor", "remark": "listed apart in the source"}, "[10]": {"molecular_target": "Muscarinic acetylcholine receptor", "remark": "listed apart in the source"}, "[11]": {"molecular_target": "Muscarinic acetylcholine receptor", "remark": "listed apart in the source"}, "[12]": {"molecular_target": "Muscarinic acetylcholine receptor", "remark": "listed apart in the source"}, "[13]": {"molecular_target": "Muscarinic acetylcholine receptor", "remark": "listed apart in the source"}, "[14]": {"molecular_target": "Muscarinic acetylcholine receptor", "remark": "listed apart in the source"}, "[15]": {"molecular_target": "Muscarinic acetylcholine receptor", "remark": "listed apart in the source"}, "[16]": {"molecular_target": "Muscarinic acetylcholine receptor", "remark": "listed apart in the source"}, "[17]": {"molecular_target": "Muscarinic acetylcholine receptor", "remark": "listed apart in the source"}, "[18]": {"molecular_target": "Muscarinic acetylcholine receptor", "remark": "listed apart in the source"}, "[19]": {"molecular_target": "Muscarinic acetylcholine receptor", "remark": "listed apart in the source"}, "[20]": {"molecular_target": "Muscarinic acetylcholine receptor", "remark": "listed apart in the source"}, "[21]": {"molecular_target": "Muscarinic acetylcholine receptor", "remark": "listed apart in the source"}, "[22]": {"molecular_target": "Muscarinic acetylcholine receptor", "remark": "listed apart in the source"}, "[23]": {"molecular_target": "Muscarinic acetylcholine receptor", "remark": "listed apart in the source"}, "[24]": {"molecular_target": "Muscarinic acetylcholine receptor", "remark": "listed apart in the source"}, "[25]": {"molecular_target": "Muscarinic acetylcholine receptor", "remark": "listed apart in the source"}, "[26]": {"molecular_target": "Muscarinic acetylcholine receptor", "remark": "listed apart in the source"}, "[27]": {"molecular_target": "Muscarinic acetylcholine receptor", "remark": "listed apart in the source"}, "[28]": {"molecular_target": "Muscarinic acetylcholine receptor", "remark": "listed apart in the source"}, "[29]": {"molecular_target": "Muscarinic acetylcholine receptor", "remark": "listed apart in the source"}, "[30]": {"molecular_target": "Muscarinic acetylcholine receptor", "remark": "listed apart in the source"}, "[31]": {"molecular_target": "Muscarinic acetylcholine receptor", "remark": "listed apart in the source"}, "[32]": {"molecular_target": "Muscarinic acetylcholine receptor", "remark": "listed apart in the source"}, "[33]": {"molecular_target": "Muscarinic acetylcholine receptor", "remark": "listed apart in the source"}, "[34]": {"molecular_target": "Muscarinic acetylcholine receptor", "remark": "listed apart in the source"}, "[35]": {"molecular_target": "Muscarinic acetylcholine receptor", "remark": "listed apart in the source"}, "[36]": {"molecular_target": "Muscarinic acetylcholine receptor", "remark": "listed apart in the source"}, "[37]": {"molecular_target": "Muscarinic acetylcholine receptor", "set-up": "species or system Rattus norvegicus", "remark": "listed apart in the source"}, "[38]": {"molecular_target": "Muscarinic acetylcholine receptor", "remark": "listed apart in the source"}, "[39]": {"molecular_target": "Muscarinic acetylcholine receptor", "remark": "listed apart in the source"}, "[40]": {"molecular_target": "Muscarinic acetylcholine receptor", "remark": "listed apart in the source"}, "[41]": {"molecular_target": "Muscarinic acetylcholine receptor", "remark": "listed apart in the source"}, "[42]": {"molecular_target": "Muscarinic acetylcholine receptor", "remark": "listed apart in the source"}, "[43]": {"molecular_target": "Muscarinic acetylcholine receptor", "remark": "listed apart in the source"}, "[44]": {"molecular_target": "Muscarinic acetylcholine receptor", "remark": "listed apart in the source"}, "[45]": {"molecular_target": "Muscarinic acetylcholine receptor", "remark": "listed apart in the source"}, "[46]": {"molecular_target": "Muscarinic acetylcholine receptor", "remark": "listed apart in the source"}, "[47]": {"molecular_target": "Muscarinic acetylcholine receptor", "remark": "listed apart in the source"}, "[48]": {"molecular_target": "Muscarinic acetylcholine receptor", "remark": "listed apart in the source"}, "[49]": {"molecular_target": "Muscarinic acetylcholine receptor", "remark": "listed apart in the source"}, "[50]": {"molecular_target": "Muscarinic acetylcholine receptor", "remark": "listed apart in the source"}, "[51]": {"molecular_target": "Muscarinic acetylcholine receptor", "remark": "listed apart in the source"}, "[52]": {"molecular_target": "Muscarinic acetylcholine receptor", "remark": "listed apart in the source"}, "[53]": {"molecular_target": "Muscarinic acetylcholine receptor", "remark": "listed apart in the source"}, "[54]": {"molecular_target": "Muscarinic acetylcholine receptor", "remark": "listed apart in the source"}, "[55]": {"molecular_target": "Muscarinic acetylcholine receptor", "remark": "listed apart in the source"}, "[56]": {"molecular_target": "Muscarinic acetylcholine receptor", "assay_type": "tissue-based, Rattus norvegicus, Hippocampus", "remark": "listed apart in the source"}, "[57]": {"molecular_target": "Muscarinic acetylcholine receptor", "remark": "listed apart in the source"}, "[58]": {"molecular_target": "Muscarinic acetylcholine receptor", "assay_type": "tissue-based, Rattus norvegicus, Hippocampus", "remark": "listed apart in the source"}, "[59]": {"molecular_target": "Muscarinic acetylcholine receptor", "remark": "listed apart in the source"}, "[60]": {"molecular_target": "Muscarinic acetylcholine receptor", "remark": "listed apart in the source"}}, "data": [{"molecule": "CCN(CC)CC1CCCCN1CC(=O)N1c2ccccc2C(=O)Nc2cccnc21", "note": "(stereo not given) [OTENZEPAD]", "values": [{"measurement": "IC50", "setting": "[1]", "result": 420, "unit": "nM"}, {"measurement": "IC50", "setting": "[2]", "result": 1300, "unit": "nM"}, {"measurement": "IC50", "setting": "[3]", "result": 240, "unit": "nM"}, {"measurement": "IC50", "setting": "[4]", "result": 1000, "unit": "nM"}, {"measurement": "IC50", "setting": "[5]", "result": 720, "unit": "nM"}, {"measurement": "IC50", "setting": "[6]", "result": 6300, "unit": "nM"}, {"measurement": "IC50", "setting": "[7]", "result": 4000, "unit": "nM"}, {"measurement": "IC50", "setting": "[8]", "result": 4900, "unit": "nM"}, {"measurement": "IC50", "setting": "[9]", "result": 250, "unit": "nM"}, {"measurement": "IC50", "setting": "[10]", "result": 570, "unit": "nM"}, {"measurement": "IC50", "setting": "[11]", "result": 320, "unit": "nM"}, {"measurement": "IC50", "setting": "[12]", "result": 14000, "unit": "nM"}, {"measurement": "IC50", "setting": "[13]", "result": 1400, "unit": "nM"}, {"measurement": "IC50", "setting": "[14]", "result": 250, "unit": "nM"}, {"measurement": "IC50", "setting": "[15]", "result": 1400, "unit": "nM"}, {"measurement": "IC50", "setting": "[16]", "result": 260, "unit": "nM"}, {"measurement": "IC50", "setting": "[17]", "result": 680, "unit": "nM"}, {"measurement": "IC50", "setting": "[18]", "result": 960, "unit": "nM"}, {"measurement": "IC50", "setting": "[19]", "result": 460, "unit": "nM"}, {"measurement": "IC50", "setting": "[20]", "result": 9800, "unit": "nM"}, {"measurement": "IC50", "setting": "[21]", "result": 860, "unit": "nM"}, {"measurement": "IC50", "setting": "[22]", "result": 300, "unit": "nM"}, {"measurement": "IC50", "setting": "[23]", "result": 610, "unit": "nM"}, {"measurement": "IC50", "setting": "[24]", "result": 1200, "unit": "nM"}, {"measurement": "IC50", "setting": "[25]", "result": 4300, "unit": "nM"}, {"measurement": "IC50", "setting": "[26]", "result": 490, "unit": "nM"}, {"measurement": "IC50", "setting": "[27]", "result": 2000, "unit": "nM"}, {"measurement": "IC50", "setting": "[28]", "result": 5800, "unit": "nM"}, {"measurement": "IC50", "setting": "[29]", "result": 580, "unit": "nM"}, {"measurement": "IC50", "setting": "[30]", "result": 260, "unit": "nM"}, {"measurement": "IC50", "setting": "[31]", "result": 580, "unit": "nM"}, {"measurement": "IC50", "setting": "[32]", "result": 7000, "unit": "nM"}, {"measurement": "IC50", "setting": "[33]", "result": 620, "unit": "nM"}, {"measurement": "IC50", "setting": "[34]", "result": 310, "unit": "nM"}, {"measurement": "IC50", "setting": "[35]", "result": 2300, "unit": "nM"}, {"measurement": "IC50", "setting": "[36]", "result": 2100, "unit": "nM"}, {"measurement": "IC50", "setting": "[37]", "result": 1600, "unit": "nM"}, {"measurement": "IC50", "setting": "[38]", "result": 310, "unit": "nM"}, {"measurement": "IC50", "setting": "[39]", "result": 3200, "unit": "nM"}, {"measurement": "IC50", "setting": "[40]", "result": 1300, "unit": "nM"}, {"measurement": "IC50", "setting": "[41]", "result": 1500, "unit": "nM"}, {"measurement": "IC50", "setting": "[42]", "result": 310, "unit": "nM"}, {"measurement": "IC50", "setting": "[43]", "result": 1900, "unit": "nM"}, {"measurement": "IC50", "setting": "[44]", "result": 2900, "unit": "nM"}, {"measurement": "IC50", "setting": "[45]", "result": 6500, "unit": "nM"}, {"measurement": "IC50", "setting": "[46]", "result": 7300, "unit": "nM"}, {"measurement": "IC50", "setting": "[47]", "result": 1800, "unit": "nM"}, {"measurement": "IC50", "setting": "[48]", "result": 790, "unit": "nM"}, {"measurement": "IC50", "setting": "[49]", "result": 1700, "unit": "nM"}, {"measurement": "IC50", "setting": "[50]", "result": 420, "unit": "nM"}, {"measurement": "IC50", "setting": "[51]", "result": 430, "unit": "nM"}, {"measurement": "IC50", "setting": "[52]", "result": 490, "unit": "nM"}, {"measurement": "IC50", "setting": "[53]", "result": 840, "unit": "nM"}, {"measurement": "IC50", "setting": "[54]", "result": 690, "unit": "nM"}, {"measurement": "IC50", "setting": "[55]", "result": 2100, "unit": "nM"}, {"measurement": "IC50", "setting": "[56]", "result": 3200, "unit": "nM"}, {"measurement": "IC50", "setting": "[57]", "result": 1000, "unit": "nM"}, {"measurement": "IC50", "setting": "[58]", "result": 6100, "unit": "nM"}, {"measurement": "IC50", "setting": "[59]", "result": 230, "unit": "nM"}, {"measurement": "IC50", "setting": "[60]", "result": 4300, "unit": "nM"}]}]}
